The subject of test [1] is alkaline phosphatase activity of mouse bone cells (OPC). In words: Alkaline phosphatase activity of OPC with bioactive reagents or polymer foams. The class given is cell-based. As to conditions: 4 weeks, OD at 405 nm, medium with or without polymer, FIG. 5. The procedure: Bioactive polymers containing covalently bound dexamethasone and β-glycerophosphate were also synthesized and studied for potential use as bone scaffolds. In several studies, mouse bone cells (OPC) (9.6×10^4/well) were cultured in a 6-well tissue culture plate without polymer foam (blank column) with Dulbecoo's modified Eagle's medium only (DMEM); with 5 mM β-glycerophosphate (β-GP); with 100 nM dexamethasone (Dex); 50 μM ascorbic acid (Vc); with 50 μM ascorbic acid and 5 mM β-glycerophosphate (Vc+β-GP); with 50 μM ascorbic acid and 100 nM dexamethasone (Vc+Dex); with 50 μM ascorbic acid, 100 nM dexamethasone and 5 mM β-glycerophosphate (Vc+Dex+β-GP) for 4 weeks.
The same cells were cultured in a 6-well plate with the LDI-PEG400-glucose polymer (red column) using DMEM only. The polymer foams were synthesized with lysine ethyl ester diisocyanate (LDI), glucose and PEG only (DMEM); with LDI, glucose, PEG and β-glycerophosphate (β-GP); with LDI, glucose, PEG and dexamethasone (Dex); with LDI, glucose, PEG and ascorbic acid (Vc); with LDI, glucose, PEG, ascorbic acid and β-glycerophosphate (Vc+β-GP); with LDI, glucose, PEG, ascorbic acid and dexamethasone (Vc+Dex); and with LDI, glucose, PEG, ascorbic acid, 3-glycerophosphate and dexamethasone (Vc+Dex+β-GP). […] The alkaline phosphatase activity was determined by the OD at 405 nm in the medium with or without polymer. […]

Test [2] deals with collagen type I in GFP-MBMC. In words: Collagen type I production (Sirius Red F3B). Conditions: after 7 days culture, P<0.005. The class given is cell-based, mouse. The method, then:
Soluble calf skin collagen type I was used for the standard curves run with each assay (see FIG. 14). […] Three individual experiments were performed for type I collagen. The results were presented as the mean±standard deviation (n=3).

Test [3] concerns type I collagen of GFP-MBMC. In words: Western blot analysis for type I collagen. Format: cell-based, mouse. As to conditions: two weeks of culture. The procedure: After two weeks of culture, the cells were harvested with Trypsin, subjected to a centrifuge and washed once with PBS. Thereafter, the lysis buffer/CLAP solution was added to the cells (Lysis buffer: 0.187 g HEPE, 0.4235 g NaCl, 0.001 g MgCl2 and 0.19 g EGTA dissolved in 50 ml PBS. CLAP solution: 4 μl each of chymostatin, leupeptin, antipain and pepstatin A in 100 μl PBS. Lysis buffer/CLAP solution: 100 μl CLAP solution added to 6.6 ml Lysis buffer). To assure complete rupture of the cells, the tubes were stored at −20° C. for 12 hrs. Total protein concentration was quantified using the BCA protein assay kit (Fisher Scientific, USA), which measured the light absorbance at 562 nm verses a standard curve on a microplate reader.
The protein obtained as described above was re-suspended in Laemmli sample buffer, followed by protein separation on an SDS-10% polyacrylamide gel. Western blotting was performed as described previously. […]
To ensure that equal amount of total protein was loaded to the membrane, GAPDH (glycerealdehyde-3-phosphate dehydrogenase) was detected using rat-anti-mouse GAPDH antibody (ICN Biochemicals, USA) followed by peroxidase-conjugated rabbit-anti-rat IgG antibody (E.Y. Laboratories, Inc. USA). […] Molecular weights of the proteins were determined using prestained molecular weight standards (14,300-200,000 molecular weight range; GIBCO BRL). […]
A general note: In western blotting, separated proteins are transferred to a membrane and probed.

Consider `O=P(O)(O)OC(CO)CO` [β-glycerophosphate], for which, in test [1], the “alkaline phosphatase activity of OPC” value is recorded as “more moderately”.

With `O=C1O[C@H]([C@@H](O)CO)C(O)=C1O` [ascorbic acid], the “alkaline phosphatase activity of OPC” value in test [1] was “significantly increased”. Also, in test [2], the “concentration of collagen type I relative to LDI-glycerol-PEG scaffold or tissue culture plate” value was “two times higher”. The “type I collagen secreted (Western blotting)” value in test [3] is on record as “higher concentrations”.

The values above are taken from patent publication US20150093821A1, “BIODEGRADABLE POLYURETHANES AND USE THEREOF” (CARNEGIE MELLON UNIVERSITY, priority 2003, published 2015).
